Laboratory results reported in patent US20190290673A1, “COMPOSITIONS AND METHODS FOR THE TREATMENT OF HBV INFECTION” (priority 2016, published 2019).

What was measured:
HBV = assay: Efficacy for treatment of HBV infection in transgenic HBV mice (liver HBV DNA, serum HBeAg/HBsAg); assay type: in vivo; conditions: per os, qd x 14 d, dosage 'high'; for liver HBV DNA levels: Southern blot hybridization and semi-quantitative PCR, compared to vehicle and ADV; for serum levels of HBeAg / serum levels of HBsAg: relative to vehicle values
Description: (§1) The goal of this study was to evaluate the efficacy of exemplary compounds for the treatment of HBV infection in transgenic mice. Homozygous […] transgenic HBV mice (21.6±2.8 g) originally obtained from the laboratory of Dr. Frank Chisari (Scripps Research Institute, LaJolla, Calif.) and derived from founder 1.3.32 were used in this study. Female and male HBV transgenic mice were block-randomized to the treatment groups (Table 1). Compounds of Formula (Ie) and Formula (If) were administered at 0.1 mL/30-gram mouse by oral gavage. Adefovir dipivoxil (ADV) was prepared as a solution of 2 mg/mL in 0.025 M sodium citrate, wherein 0.1 mL was administered by oral gavage (per os, p.o.) per 30 g mouse for a dosage of […].
(§2) Treatment was initiated at day 1. After the last treatment on day 14, necropsy was performed to obtain tissues to assay liver HBV DNA and sera for HBV antigens HBeAg and HBsAg. Weights were obtained on days −1, 1 (day of treatment initiation), 3, 7, and 14. Data were analyzed by one-way analysis of variance. Two animals died due to oral gavage treatment at day 7, one in group 1 and another in group 3. FIGS. 2A-2B show the effect of Formula (Ie) and Formula (If) on liver HBV DNA levels using Southern blot hybridization (FIG. 2A) and semi-quantitative PCR (FIG. 2B) as compared to vehicle and ADV.

[1] = Whole body weight change in transgenic HBV mice; assay type: in vivo; conditions: per os, qd x 14 d, dosage 'high'; relative to vehicle values
Description: as §1, §2

CO[C@H]1C(O[P@](=O)(OC[C@H]2O[C@@H](n3cnc4c(N)ncnc43)CC2O)SCOC(=O)OC(C)C)[C@@H](CO)O[C@H]1n1ccc(=O)[nH]c1=O (some centres unmarked) [Formula (Ie)]
liver HBV DNA levels (HBV): lowered HBV DNA levels in the liver
serum levels of HBeAg (HBV): Neither Formula (Ie) or Formula (If) had an effect
serum levels of HBsAg (HBV): Neither Formula (Ie) or Formula (If) had an effect
whole body weight change [1]: Neither Formula (Ie) or Formula (If) had an effect

CO[C@H]1C(O[P@@](=O)(OC[C@H]2O[C@@H](n3cnc4c(N)ncnc43)CC2O)SCOC(=O)OC(C)C)[C@@H](CO)O[C@H]1n1ccc(=O)[nH]c1=O (some centres unmarked) [Formula (If)]
liver HBV DNA levels (HBV): lowered HBV DNA levels in the liver
serum levels of HBeAg (HBV): Neither Formula (Ie) or Formula (If) had an effect
serum levels of HBsAg (HBV): Neither Formula (Ie) or Formula (If) had an effect
whole body weight change [1]: Neither Formula (Ie) or Formula (If) had an effect
